Data reported in patent publication US11028084B2, “Selective inhibitors of gentotoxic steress-induced IKK/NF-κB pathways” (Max-Delbrück-Centrum für Molekulare Medizin in der …, priority 2016, dated 2021).

Experiments:
[1] = tested on: NF-κB target genes NFKBIA, TNFAIP3, CXCL8; experiment: qRT-PCR of NF-κB target genes after irradiation, U2OS cells; type: cell-based, human; conditions: 90 min after irradiation
Experimental: FIG. 14: (A) U2OS cells were pre-treated with different concentrations of olaparib prior to co-treatment with etoposide. Whole cell lysis was performed after 90 min and cleared lysates were used for WB with indicated antibodies. (B) U2OS cells were pre-treated with DMSO, olaparib or the ATM inhibitor Ku55933 and co-treated with etoposide. Cells were harvested after 45 min and subjected to SDS-PAGE/WB. Membranes were stained with the indicated antibodies. The experiment of (B) was performed simultaneously to the experiments of (A) and (E) to control functionality of olaparib in inhibiting PAR chain formation. (C) Densitometrical analyses of (A) and two further independent experiments done as shown in (A). (D) U2OS cells were pre-treated with the substances as indicated prior to irradiation. After 90 min mRNA was isolated, transcribed into cDNA and was used for expression analyses of the indicated genes using quantitative real-time PCR (qRT-PCR). (E) HepG2 cells were pre-treated with the PARP inhibitors olaparib, 3-AB and EB-47 prior to γ-irradiation. Cells were harvested after 15 and 90 min and subjected to SDS-PAGE/WB. Membranes were stained with the indicated antibodies. Error bars equal SEM.
To quantitate specific mRNA (messenger RNA) species in samples RNA was isolated, RNA concentration was measured and mRNA was transcribed into cDNA. The amount of mRNA transcripts of certain genes within a sample was quantified by employing gene specific primers and using a C-1000 Thermal cycler (Biorad). The expression of genes of interest was normalised against two or three reference genes (HRPT1, RPL_13a and B2M) using the CFX manager software. The fold induction of mRNA was calculated over untreated sample levels by the ΔΔ-Ct method.

ATM = biological target: T1, ATM (Homo sapiens, UniProt Q13315); experiment: Enzymatic activity of ATM in γ-irradiated HepG2 cells, WB of ATM and substrate phosphorylation; type: cell-based
T1 construct: endogenous in cells; host or cells: HepG2
T1 sequence (Q13315 whole entry): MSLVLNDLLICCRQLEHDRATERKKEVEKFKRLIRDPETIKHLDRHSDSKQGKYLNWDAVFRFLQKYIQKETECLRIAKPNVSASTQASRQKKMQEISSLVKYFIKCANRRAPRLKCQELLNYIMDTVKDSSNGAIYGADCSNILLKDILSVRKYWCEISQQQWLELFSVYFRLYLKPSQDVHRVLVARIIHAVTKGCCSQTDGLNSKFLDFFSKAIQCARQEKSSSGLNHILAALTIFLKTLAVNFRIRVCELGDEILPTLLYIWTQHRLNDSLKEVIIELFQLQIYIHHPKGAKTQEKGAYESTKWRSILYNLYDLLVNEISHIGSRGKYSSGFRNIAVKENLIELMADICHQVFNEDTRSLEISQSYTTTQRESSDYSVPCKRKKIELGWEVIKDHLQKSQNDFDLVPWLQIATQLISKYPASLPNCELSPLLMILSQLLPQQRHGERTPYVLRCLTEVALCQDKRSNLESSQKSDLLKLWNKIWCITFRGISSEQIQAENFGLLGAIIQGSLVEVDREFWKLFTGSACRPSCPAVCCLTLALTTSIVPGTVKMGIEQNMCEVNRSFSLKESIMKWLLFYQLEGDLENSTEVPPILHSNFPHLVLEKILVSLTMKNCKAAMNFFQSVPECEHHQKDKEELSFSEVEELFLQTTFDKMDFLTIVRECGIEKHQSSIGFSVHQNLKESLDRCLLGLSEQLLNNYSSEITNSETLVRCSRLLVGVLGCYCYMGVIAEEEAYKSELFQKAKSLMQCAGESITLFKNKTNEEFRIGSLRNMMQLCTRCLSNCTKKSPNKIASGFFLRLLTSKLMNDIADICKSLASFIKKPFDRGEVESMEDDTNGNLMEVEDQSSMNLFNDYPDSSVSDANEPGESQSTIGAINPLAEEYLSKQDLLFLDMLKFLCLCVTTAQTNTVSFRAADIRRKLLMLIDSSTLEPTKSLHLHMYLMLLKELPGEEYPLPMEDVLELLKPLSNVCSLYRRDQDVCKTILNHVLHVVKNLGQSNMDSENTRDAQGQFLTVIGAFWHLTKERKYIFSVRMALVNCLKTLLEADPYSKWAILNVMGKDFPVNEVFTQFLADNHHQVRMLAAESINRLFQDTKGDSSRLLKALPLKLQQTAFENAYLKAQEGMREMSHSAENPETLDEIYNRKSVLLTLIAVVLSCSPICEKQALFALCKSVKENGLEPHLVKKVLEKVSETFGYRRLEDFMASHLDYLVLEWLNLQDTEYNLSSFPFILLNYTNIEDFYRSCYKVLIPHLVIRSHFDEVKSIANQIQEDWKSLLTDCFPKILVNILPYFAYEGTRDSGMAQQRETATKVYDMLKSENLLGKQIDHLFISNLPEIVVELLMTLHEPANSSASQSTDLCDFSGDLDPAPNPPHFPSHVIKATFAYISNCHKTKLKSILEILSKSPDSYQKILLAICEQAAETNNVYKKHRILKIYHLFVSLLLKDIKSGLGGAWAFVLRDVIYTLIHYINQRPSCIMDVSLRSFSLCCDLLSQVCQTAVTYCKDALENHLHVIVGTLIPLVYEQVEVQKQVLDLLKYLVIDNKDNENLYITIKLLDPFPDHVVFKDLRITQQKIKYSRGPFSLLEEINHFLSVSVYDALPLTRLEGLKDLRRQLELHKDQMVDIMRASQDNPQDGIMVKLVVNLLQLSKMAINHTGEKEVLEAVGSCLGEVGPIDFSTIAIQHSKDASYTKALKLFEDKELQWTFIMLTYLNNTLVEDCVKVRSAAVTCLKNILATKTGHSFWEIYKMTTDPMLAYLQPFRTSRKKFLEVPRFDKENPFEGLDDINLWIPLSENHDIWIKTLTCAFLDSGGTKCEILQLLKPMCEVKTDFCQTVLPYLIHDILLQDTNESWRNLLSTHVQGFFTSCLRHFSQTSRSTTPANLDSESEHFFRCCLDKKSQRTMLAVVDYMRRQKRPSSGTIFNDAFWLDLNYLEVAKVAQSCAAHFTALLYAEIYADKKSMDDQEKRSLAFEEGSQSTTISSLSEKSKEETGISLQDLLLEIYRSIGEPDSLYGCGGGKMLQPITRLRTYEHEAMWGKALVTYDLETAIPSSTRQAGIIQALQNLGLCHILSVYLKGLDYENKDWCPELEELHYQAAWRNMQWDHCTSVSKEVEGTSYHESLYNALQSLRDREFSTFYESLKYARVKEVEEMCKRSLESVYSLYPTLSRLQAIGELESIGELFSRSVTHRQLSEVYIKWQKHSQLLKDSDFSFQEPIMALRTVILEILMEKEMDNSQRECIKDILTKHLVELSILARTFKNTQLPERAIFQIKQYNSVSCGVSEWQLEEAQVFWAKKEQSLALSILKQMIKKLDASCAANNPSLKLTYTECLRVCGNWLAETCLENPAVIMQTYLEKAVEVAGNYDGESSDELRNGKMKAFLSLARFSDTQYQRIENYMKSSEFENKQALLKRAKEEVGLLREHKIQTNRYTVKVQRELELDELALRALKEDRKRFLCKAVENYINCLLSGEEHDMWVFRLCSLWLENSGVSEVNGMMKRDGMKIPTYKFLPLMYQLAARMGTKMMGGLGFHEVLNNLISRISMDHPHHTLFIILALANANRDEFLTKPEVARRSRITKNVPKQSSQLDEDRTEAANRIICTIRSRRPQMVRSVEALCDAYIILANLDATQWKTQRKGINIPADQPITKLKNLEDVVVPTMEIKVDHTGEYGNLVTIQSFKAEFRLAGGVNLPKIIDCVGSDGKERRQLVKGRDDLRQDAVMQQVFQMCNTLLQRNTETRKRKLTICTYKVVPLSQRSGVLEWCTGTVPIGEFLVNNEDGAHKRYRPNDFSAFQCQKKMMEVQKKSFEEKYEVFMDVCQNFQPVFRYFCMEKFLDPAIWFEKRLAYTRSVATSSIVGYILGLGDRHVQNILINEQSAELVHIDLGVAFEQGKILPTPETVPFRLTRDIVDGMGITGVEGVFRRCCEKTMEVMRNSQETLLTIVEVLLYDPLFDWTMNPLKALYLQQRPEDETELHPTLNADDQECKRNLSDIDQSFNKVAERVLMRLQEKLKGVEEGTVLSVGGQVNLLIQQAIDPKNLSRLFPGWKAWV
Experimental: FIG. 9: HepG2 cells were pre-incubated with DMSO, MW01 (5 μM) or the ATM inhibitor Ku55933 (10 μM) and irradiated. After 60 min cells were harvested and processed. Immunochemical staining of Western blotting membranes was done using indicated antibodies.

[2] = tested on: IL-1β-induced NF-κB activation; experiment: IL-1β-stimulated NF-κB activation, SDS-PAGE/WB and EMSA, U2OS cells; type: cell-based, human
Experimental: FIG. 5: (A) U2OS cell were pre-treated with MW01 followed by stimulation with IL-1p. Cell lysates were used for SDS-PAGE/WB and EMSA. (B) Cells pre-treated with increasing concentrations MW01 were stimulated with IL-1p. Cell lysates were used for SDS-PAGE/WB and stained with indicated antibodies.
(§1) For the activation of the canonical NF-κB pathway cells were treated with recombinant human TNFα (10 ng/ml) or IL-1β (10 ng/ml) for 20-30 min at 37° C.

[3] = tested on: TNFα-induced NF-κB activation; experiment: p65 S536 phosphorylation after TNFα stimulation, SDS-PAGE/WB, U2OS cells; type: cell-based, human; conditions: 10 μM and 20 μM
Experimental: FIG. 4: (A) U2OS cells were pre-treated with increasing concentrations of MW01 in triplicates in a 384 well plate. Then, cells were treated with TNFα, fixed and subjected to IF staining of p65. Spatial measurement of p65 cytosolic and nuclear signals was used for the calculation of p65 translocation rates. (B) U2OS cells were pre-treated with MW01 at concentrations of 10 or 20 μM and stimulated with TNFα. Cell lysates were subjected to SDS-PAGE/WB. (C) HEK293 cells were pre-treated with DMSO or MW01 followed by administration of etoposide or TNFα. Cell lysates were used for EMSA.
as §1

[4] = biological target: nuclear IKKγ-PIASy-PARP1-ATM signalosome (Homo sapiens, UniProt P09874+Q13315+Q8N2W9+Q9Y6K9); experiment: Nuclear PARP1-signalosome formation, IKKγ co-immunoprecipitation, HEK293 cells; type: cell-based; design: endogenous in cells; host or cells: HEK293
Experimental: FIG. 8: (A) HepG2 cells were pre-treated with DMSO or MW01 and irradiated. Nuclear cell extracts (NE) were used for PIASy immunoprecipitation (IP). Western blot membranes were incubated with indicated antibodies. (B) Experiment as shown in (A), but with IKKγ IP. (C) Experiment as shown in (B), but done in HEK293 cells. (D) Experiment done as shown in […], but repeated in MEF cells.
(§2) Following cell lysis the protein concentration of samples was determined. For input controls, 40 μg lysate were mixed with 6×SDS-buffer and denatured by heating to 95° C. for 4 min. Approximately 1500 μg protein lysate was used for pulldown and samples volumes were equalled with lysis buffer. Lysates were precleared with 30 μl sepharose A or sepharose G beads (depending on the antibody type used for pulldown) for 30 min, and centrifuged for 5 min at 1,500×g. The supernatant was transferred to a new reaction tube. Primary antibody (2-2.5 μg) was added to the cleared lysate for immunoprecipitation overnight while rotating at 4° C. The next day 30 μl sepharose beads per sample were used for immobilisation of antibodies. Following 4 washes with IP wash buffer precipitated proteins were eluted by mixing with 3×SDS-buffer and heating to 95° C. for 4 min.

IKKγ mono-ubiquitination = IKKγ mono-ubiquitination after irradiation, IKKγ immunoprecipitation, HEK293 cells; type: cell-based, human
Experimental: FIG. 11: (A) HEK293 cells were pre-incubated with DMSO, MW01 or ATM inhibitor KU55933 and irradiated. Lysates were subjected to SDS-PAGE/WB. The specific IKKγ S85 band (lower band) was identified by induction following irradiation and by sensitivity to ATMi and λ-phosphatase (λ-PP) treatment. The asterisk indicates a non-specific band that was neither inducible nor ATMi sensitive. (B) Experiment was done as shown in (A) using MEF cells. (C) HEK293 cells were pre-treated with DMSO or MW01, irradiated and lysed. Lysates were used to immunoprecipitate IKKγ using an IKKγ antibody.
as §2, with “Following 4 washes with IP wash buffer precipitated proteins were eluted by mixing with 3×SDS-buffer and heating to 95° C. for 4 min.” left out

DNA repair mechanisms = experiment: γH2AX foci per nucleus, immunofluorescence, U2OS cells; type: cell-based, human; conditions: 5 μM, untreated (non-irradiated) cells, 5 hours
Experimental: FIG. 17: U2OS cells grown on coverslips were incubated 30 min with DMSO or MW01 (5 μM). Then, cells were γ-irradiated (5 Gy) or mock irradiated (mock IR). After 5 hours, cells were fixed and subjected to immunofluorescence staining procedure. DNA damage-indicating γH2AX foci and nuclei n≥480 nuclei per condition) were counted for the calculation of average foci per nucleus. Significance was calculated using student's t-test.
U2OS cells were grown on coverslips and incubated 30 min with DMSO or MW01 (5 μM). Then, cells were γ-irradiated (5 Gy) or mock irradiated (mock IR). After 5 hours, cells were fixed and subjected to immunofluorescence staining procedure. DNA damage-indicating γH2AX foci and nuclei (n≥480 nuclei per condition) were counted for the calculation of average foci per nucleus. Significance was calculated using student's t-test.

[5] = HepG2, γ-irradiation, 60 min, MW01 5 μM, Ku55933 10 μM

## COc1ccc2c(c1OC)c(=O)n1c3ccc(O)cc3c3ccnc2c31 [MW01, 12-hydroxy-6,7-dimethoxy-8H-benzo[c]indolo[3,2,1-ij][1,5]naphthyridin-8-one]
[1]
  NFKBIA, TNFAIP3 and CXCL8 mRNA induction upon irradiation: complete inhibition
ATM; [5]
  ATM auto-phosphorylation and phosphorylation of the ATM substrates p53 and KAP1: no effects
  phosphorylation state of p53bp1: mild effects
ATM; conclusion from auto-phosphorylation and substrate phosphorylation
  enzymatic activity of ATM: not affected
[2]; U2OS
  p65 S536 phosphorylation following IL-1β stimulation: neither inhibited p65 S536 phosphorylation
[2]; up to 100 μM
  IKK activation and p65 S536 phosphorylation after IL-1β at high concentrations: no effect on the phosphorylation state of IKK or p65
[3]
  p65 S536 phosphorylation after TNFα: no effect
[4]; HEK293, data not shown
  Co-IP of PARP-1 with IKKγ: abrogated Co-IP of PARP-1 with IKKγ
[4]; HEK293, γ-irradiation
  IKKγ-PIASy-interaction (PIASy co-immunoprecipitation with IKKγ): the interaction was abolished
IKKγ mono-ubiquitination
  IKKγ mono-ubiquitination: abolishment
DNA repair mechanisms
  γH2AX foci per cell: significant increase
